# Reference: patent US8877707B2, “Inhibitors of HCV NS5A” (Presidio Pharmaceuticals, Inc., priority 2010, dated 2014)
# Where two headings read alike, the source gives them in different places.
# Test system: HCV genotype 1b replicon in Huh 7 cells
# Assay: HCV replicon assay (1b_Huh-Luc/Neo-ET cell line, luciferase readout)
# Type: cell-based
# Conditions: Hepatitis C virus, read-out: Inhibition of HCV genotype 1b
# Method in brief: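 Huh 7 cells carrying a bicistronic genotype 1b luciferase replicon were treated with compound in triplicate the day after plating and incubated 72 h. Luciferase activity expressed as % of untreated control; EC50 from a four-parameter logistic fit, repeated several times.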
# [1] = Table 1, genotype 1b replicon, Huh 7 cells, 72 h, luciferase
# [2] = Table 2, genotype 1b replicon, Huh 7 cells, 72 h, luciferase
Compound,"EC50 (Huh-7, HCV 1b replicon) [nM]",EC50 [1] [nM],other results
COC(=O)N[C@H](C(=O)N1CCC[C@H]1c1ncc(-c2ccc3cc(-c4ccc5nc([C@@H]6CCCN6C(=O)[C@@H](NC(=O)OC)C6CC6)[nH]c5n4)ccc3c2)[nH]1)C1CC1 [compound 516],< 1,,
C#CC[C@H](NC(=O)OC)C(=O)N1CCC[C@H]1c1ncc(-c2ccc3nc(-c4ccc(-c5cnc([C@@H]6CCCN6C(=O)[C@H](NC(=O)OC)c6ccccc6)[nH]5)cc4F)ccc3c2)[nH]1 [compound 487],< 1,,
COC(=O)N[C@H](C(=O)N1CCC[C@H]1c1ncc(-c2ccc(-c3nc4cc(-c5cnc([C@@H]6CCCN6C(=O)[C@@H](NC(=O)OC)C(C)C)[nH]5)ccc4n3C)cc2)[nH]1)C(C)C [compound 232],,< 1,
COC(=O)N[C@H](C(=O)N1CCC[C@H]1c1ncc(-c2ccc3cc(-c4cc5[nH]c([C@@H]6CCCN6C(=O)[C@@H](NC(=O)OC)C6CC6)nc5cn4)ccc3c2)[nH]1)C1CC1 [compound 414],,,EC50 [2]: < 1 nM
COC(=O)N[C@H](C(=O)N1CCC[C@H]1c1nc2ccc(-c3ccc4cc(-c5cnc([C@@H]6CCCN6C(=O)[C@H](NC(=O)OC)c6ccccc6)[nH]5)ccc4c3)nc2[nH]1)C(C)C [compound 200],,< 1,
CCC(CC)[C@H](NC(=O)OC)C(=O)N1CCC[C@H]1c1ncc(-c2ccc3cc(-c4ccc5nc([C@@H]6CCCN6C(=O)[C@@H](NC(=O)OC)C(CC)CC)[nH]c5c4)ncc3c2)[nH]1 [compound 518],< 1,,
COC(=O)N[C@@H](C)C(=O)N1CCC[C@H]1c1nc(-c2ccc3nc(N4CCC(c5cnc([C@@H]6CCCN6C(=O)[C@H](C)NC(=O)OC)[nH]5)CC4)ccc3c2)c[nH]1 [compound 273],,1 to 9.9,
COC(=O)N[C@H](C(=O)N1CCC[C@H]1c1nc2ccc(-c3ccc4cc(-c5cnc([C@@H]6CCCN6C(=O)[C@H](NC(=O)N6CC[C@H](O)C6)c6ccccc6)[nH]5)ccc4c3)cc2[nH]1)C(C)C [compound 183],,< 1,
COC(=O)N[C@H](C(=O)N1CCC[C@H]1c1ncc(-c2ccc(-c3nc4cc(-c5cnc([C@@H]6CCCN6C(=O)[C@H](NC(=O)OC)c6ccccc6)[nH]5)ccc4s3)cc2)[nH]1)C(C)C [compound 536],< 1,,
COC(=O)N[C@H](C(=O)N1CCC[C@H]1c1ncc(-c2ccc3cc(-c4ccc5nc([C@@H]6CCCN6C(=O)[C@@H](NC(=O)OC)C(C)C)[nH]c5c4)ncc3c2)[nH]1)C(C)C [compound 204],,< 1,
COC(=O)N[C@H](C(=O)N1CCC[C@H]1c1ncc(-c2ccc3cc(-c4ccc5nc([C@@H]6COCCN6C(=O)[C@@H](NC(=O)OC)C6CCCC6)[nH]c5c4)ccc3c2)[nH]1)C1CCCC1 [compound 350],,,EC50 [2]: < 1 nM
COC(=O)N[C@H](C(=O)N1CCC[C@H]1c1ncc(-c2ccc3cc(-c4ccc(-c5cnc([C@@H]6CCCN6C(=O)[C@H](NC(=O)OC)c6ccccc6)[nH]5)cc4F)ncc3c2)[nH]1)C(C)C [compound 152],,< 1,
CCNC(=O)N[C@@H](C(=O)N1CCC[C@H]1c1ncc(-c2ccc(-c3ccc4cc(-c5c[nH]c([C@@H]6CCCN6C(=O)[C@@H](NC(=O)OC)C(C)C)n5)ccc4c3)cc2)[nH]1)c1ccccc1 [compound 27],,< 1,
COC(=O)N[C@H](C(=O)N1CCC[C@H]1c1nc(-c2cnc3cc(-c4ccc(-c5cnc([C@@H]6CCCN6C(=O)[C@@H](NC(=O)OC)C6CCOCC6)[nH]5)cn4)ccc3c2)c[nH]1)C(C)C [compound 62],,< 1,
COC(=O)N[C@H](C(=O)N1CCC[C@H]1c1ncc(-c2ccc(-c3ccc4cc(-c5c[nH]c([C@@H]6CCCN6C(=O)[C@H](NC(=O)OC)c6ccccc6)n5)ccc4c3)c(C)c2)[nH]1)C(C)C [compound 87],,< 1,
CNC(=O)N[C@@H](C(=O)N1CCC[C@H]1c1ncc(-c2ccc(-c3nc4ccc(-c5cnc([C@@H]6CCCN6C(=O)[C@@H](NC(=O)OC)C(C)C)[nH]5)cc4o3)cc2)[nH]1)c1ccccc1 [compound 256],,< 1,
c1cc2nc(C34CCC(c5cnc([C@@H]6CCCN6)[nH]5)(CC3)CC4)ccc2cc1-c1c[nH]c([C@@H]2CCCN2)n1 [compound 267],,> 1000,
COC(=O)N[C@H](C(=O)N1CCC[C@H]1c1ncc(-c2ccc(-c3cc4ccc(-c5cnc([C@@H]6CCCN6C(=O)[C@@H](NC(=O)OC)C(C)C)[nH]5)cc4cn3)c(F)c2)[nH]1)C(C)C [compound 150],,< 1,
COC(=O)N[C@H](C(=O)N1CCC[C@H]1c1ncc(-c2ccc(-c3cc4ccc(-c5c[nH]c([C@@H]6CCCN6C(=O)[C@H](NC(=O)OC)c6ccccc6)n5)cc4cn3)cc2)[nH]1)C1CCOCC1 [compound 101],,< 1,
COC(=O)N[C@H](C(=O)N1CCC[C@H]1c1nc(-c2ccc3cc(-c4ccc(-c5cnc([C@@H]6CCCN6C(=O)[C@@H](NC(=O)OC)C(C)C)[nH]5)cc4)ccc3n2)c[nH]1)C(C)C [compound 102],,< 1,
COC(=O)N[C@H](C(=O)N1CCC[C@H]1c1ncc(-c2ccc(-c3ccc4cc(-c5c[nH]c([C@@H]6CCCN6C(=O)[C@@H](NC(=O)OC)C6CCOCC6)n5)ccc4c3)c(F)c2)[nH]1)C(C)C [compound 68],,< 1,

Compound,"EC50 (Huh-7, HCV 1b replicon) [nM]",EC50 [1] [nM],other results
COC(=O)N[C@H](C(=O)N1CCC[C@H]1c1ncc(-c2ccc(N3Cc4cc(-c5cnc([C@@H]6CCCN6C(=O)[C@@H](NC(=O)OC)C(C)C)[nH]5)ccc4C3=O)cc2)[nH]1)C(C)C [compound 290],,< 1,
COC(=O)N[C@H](C(=O)N1CCC[C@H]1C(=O)N[C@@H](C)c1ccc(-c2ccc3cc(-c4cnc([C@@H]5CCCN5C(=O)[C@@H](NC(=O)OC)C(C)C)[nH]4)ccc3c2)cc1)C(C)C [compound 557],< 1,,
COC(=O)N[C@H](C(=O)N1CCC[C@H]1c1ncc(-c2ccc(-c3cc4ccc(-c5cnc([C@@H]6CCCN6C(=O)[C@H](NC(=O)OC)c6ccccc6)[nH]5)cc4cn3)cc2)[nH]1)[C@@H](C)O [compound 484],< 1,,
COC(=O)N[C@H](C(=O)N1CCC[C@H]1c1nc2ccc(-c3ccc4cc(-c5cnc([C@@H]6CCCN6C(=O)[C@@H](NC(=O)OC)[C@@H](C)OC)[nH]5)ccc4c3)cc2[nH]1)C1CCCCC1 [compound 529],< 1,,
COC(=O)N[C@@H](C)C(=O)N1CCC[C@H]1c1ncc(-c2ccc3nc(-c4ccc(-c5cnc([C@@H]6CCCN6C(=O)[C@H](NC(=O)OC)c6ccccc6)[nH]5)c(F)c4)ccc3c2)[nH]1 [compound 459],< 1,,
CCNC(=O)N[C@@H](C(=O)N1CCC[C@H]1c1nc(-c2ccc3cc(-c4ccc(-c5cnc([C@@H]6CCCN6C(=O)[C@@H](NC(=O)OC)C(C)C)[nH]5)cc4)ccc3c2)c[nH]1)c1ccccc1 [compound 28],,< 1,
COC(=O)N[C@H](C(=O)N1CCC[C@H]1c1ncc(-c2ccc3nc(-c4ccc(-c5cnc([C@@H]6CCCN6C(=O)[C@@H](NC(=O)OC)C6CCOCC6)[nH]5)c(F)c4)ccc3c2)[nH]1)C(C)C [compound 454],< 1,,
COC(=O)N[C@H](C(=O)N1CCC[C@H]1c1ncc(-c2ccc3cc(-c4ccc(-c5cnc([C@@H]6CCCN6C(=O)[C@H](NC(=O)OC)c6ccsc6)[nH]5)cc4)ccc3c2)[nH]1)C(C)C [compound 466],< 1,,
COC(=O)N[C@H](C(=O)N1CCC[C@H]1c1nc(-c2ccc3cc(-c4ccc(-c5cnc([C@@H]6CCCN6C(=O)[C@H](NC(=O)OC6CCOCC6)c6ccccc6)[nH]5)cc4)ccc3c2)c[nH]1)C1CCOCC1 [compound 113],,< 1,
COC(=O)N[C@H](C(=O)N1CCC[C@H]1c1ncc(-c2ccc(-c3cnc4ccc(-c5cnc([C@@H]6CCCN6C(=O)[C@@H](NC(=O)OC)C(C)C)[nH]5)cc4n3)cc2)[nH]1)C(C)C [compound 12],,1 to 9.9,
COC(=O)N[C@@H](C(=O)N1CCC[C@H]1c1nc(-c2ccc3nc(C4CCC(c5cnc([C@@H]6CCCN6C(=O)[C@H](NC(=O)OC)c6ccccc6)[nH]5)CC4)ccc3c2)c[nH]1)c1ccccc1 (some centres unmarked) [compound 286],,< 1,
COC(=O)N[C@H](C(=O)N1CCC[C@H]1c1ncc(-c2ccc3cc(-c4ccc5nc([C@@H]6CCCN6C(=O)[C@H](NC(=O)OC)c6ccccc6)[nH]c5n4)ccc3c2)[nH]1)C(C)C [compound 199],,< 1,
COC(=O)N[C@H](C(=O)N1CCC[C@H]1c1ncc(-c2ccc(-c3ccc4cc(-c5cnc([C@@H]6CCCN6C(=O)[C@@H](NC(=O)OC)C6CCCC6)[nH]5)ccc4c3)cc2)[nH]1)C1CCCC1 [compound 172],,< 1,
O=C(N[C@@H](C(=O)N1CCCC[C@H]1c1ncc(-c2ccc(-c3ccc4cc(-c5cnc([C@@H]6CCCN6C(=O)[C@H](NC(=O)OC6CCOCC6)c6ccccc6)[nH]5)ccc4n3)cc2)[nH]1)c1ccccc1)OC1CCOCC1 [compound 458],< 1,,
COC(=O)N[C@H](C(=O)N1CCOC[C@H]1c1ncc(-c2ccc(-c3ccc4cc(-c5cnc([C@@H]6CCCN6C(=O)[C@H](NC(=O)OC)c6ccccc6)[nH]5)ccc4c3)cc2)[nH]1)C(C)C [compound 137],,< 1,
COC(=O)N[C@H](C(=O)N1CCC[C@H]1c1nc2ccc(-c3ccc4nc(-c5cnc([C@@H]6CCCN6C(=O)[C@H](NC(=O)OC)c6ccccc6)[nH]5)ccc4c3)cc2[nH]1)C(C)C [compound 210],,< 1,
COC(=O)N[C@H](C(=O)N1CCC[C@H]1c1ncc(-c2ccc3nc(-c4ccc(-c5cnc([C@@H]6CCCN6C(=O)[C@H](NC(=O)OC)c6ccccc6)[nH]5)c(F)c4)ccc3c2)[nH]1)[C@@H](C)OC [compound 460],< 1,,
CC[C@H](C)[C@H](NC(=O)OC)C(=O)N1CCC[C@H]1c1nc2ccc(-c3ccc4cc(-c5cnc([C@@H]6CCCN6C(=O)[C@@H](NC(=O)OC)[C@@H](C)OC)[nH]5)ccc4c3)cc2[nH]1 [compound 511],< 1,,
COC(=O)N[C@H](C(=O)N1CCC[C@H]1c1ncc(-c2ccc(-c3ccc4cc(-c5c[nH]c([C@@H]6CCCN6C(=O)[C@@H](NC(=O)OC)C6CCOCC6)n5)cnc4c3)c(F)c2)[nH]1)C(C)C [compound 59],,< 1,
COC(=O)N[C@@H](C)C(=O)N1CCC[C@H]1c1ncc(-c2ccc3cc(-c4ccc(-c5cnc([C@@H]6CCCN6C(=O)[C@H](NC(=O)OC)c6cccs6)[nH]5)cc4)ccc3c2)[nH]1 [compound 502],< 1,,
